Measurements from PMC10824666 (Nature Cancer, 2023).
Like-named read-outs stand apart in the source and are kept apart here.

Experiments:
Test in all cases: biochemical
Set-up in all cases: Eurofins DiscoverX kinase panel, competitive binding assay at 1 uM, percent of DMSO control
Conditions in all cases: competitive binding, percent of DMSO control
Brk = target: T1, Brk (Homo sapiens, UniProt Q13882)
T1 construct: gene PTK6
In short: (§1)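 Single-point profiling at 1 µM compound in a competition-binding format against 96 kinases, read out as POC relative to control; n = 1.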

MNK1b = target: T2, MNK1b (Homo sapiens, UniProt Q9BUB5)
T2 construct: gene MKNK1; isoform b
T2 sequence (Q9BUB5 whole entry, canonical isoform): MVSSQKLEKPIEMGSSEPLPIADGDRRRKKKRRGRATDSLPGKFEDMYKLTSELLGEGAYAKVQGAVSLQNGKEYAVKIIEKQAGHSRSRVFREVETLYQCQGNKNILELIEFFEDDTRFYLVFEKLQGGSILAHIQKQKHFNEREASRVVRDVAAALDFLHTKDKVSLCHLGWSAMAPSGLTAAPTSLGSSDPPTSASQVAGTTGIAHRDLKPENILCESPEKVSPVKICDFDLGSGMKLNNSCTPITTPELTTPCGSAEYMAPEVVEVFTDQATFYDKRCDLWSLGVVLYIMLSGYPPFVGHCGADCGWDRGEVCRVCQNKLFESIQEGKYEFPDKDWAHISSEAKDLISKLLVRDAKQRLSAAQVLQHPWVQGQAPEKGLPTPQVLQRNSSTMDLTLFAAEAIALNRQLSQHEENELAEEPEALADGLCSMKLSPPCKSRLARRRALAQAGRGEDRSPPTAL
In short: as §1

MAP2K3 = target: T3, MAP2K3 (Homo sapiens, UniProt P46734)
T3 sequence (P46734 1-347): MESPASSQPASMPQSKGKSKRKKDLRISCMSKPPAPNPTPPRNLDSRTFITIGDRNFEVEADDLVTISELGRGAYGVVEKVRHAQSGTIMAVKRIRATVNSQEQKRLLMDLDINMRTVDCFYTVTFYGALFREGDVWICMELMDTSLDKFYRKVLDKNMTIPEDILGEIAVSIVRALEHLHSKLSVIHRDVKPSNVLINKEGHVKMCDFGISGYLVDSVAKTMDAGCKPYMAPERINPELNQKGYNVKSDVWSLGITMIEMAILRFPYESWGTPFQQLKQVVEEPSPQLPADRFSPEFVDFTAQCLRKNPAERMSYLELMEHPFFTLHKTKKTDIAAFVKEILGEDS
In short: as §1

Mps1 = target: T4, Mps1 (Homo sapiens, UniProt P33981)
T4 construct: gene TTK
T4 sequence (P33981 1-857): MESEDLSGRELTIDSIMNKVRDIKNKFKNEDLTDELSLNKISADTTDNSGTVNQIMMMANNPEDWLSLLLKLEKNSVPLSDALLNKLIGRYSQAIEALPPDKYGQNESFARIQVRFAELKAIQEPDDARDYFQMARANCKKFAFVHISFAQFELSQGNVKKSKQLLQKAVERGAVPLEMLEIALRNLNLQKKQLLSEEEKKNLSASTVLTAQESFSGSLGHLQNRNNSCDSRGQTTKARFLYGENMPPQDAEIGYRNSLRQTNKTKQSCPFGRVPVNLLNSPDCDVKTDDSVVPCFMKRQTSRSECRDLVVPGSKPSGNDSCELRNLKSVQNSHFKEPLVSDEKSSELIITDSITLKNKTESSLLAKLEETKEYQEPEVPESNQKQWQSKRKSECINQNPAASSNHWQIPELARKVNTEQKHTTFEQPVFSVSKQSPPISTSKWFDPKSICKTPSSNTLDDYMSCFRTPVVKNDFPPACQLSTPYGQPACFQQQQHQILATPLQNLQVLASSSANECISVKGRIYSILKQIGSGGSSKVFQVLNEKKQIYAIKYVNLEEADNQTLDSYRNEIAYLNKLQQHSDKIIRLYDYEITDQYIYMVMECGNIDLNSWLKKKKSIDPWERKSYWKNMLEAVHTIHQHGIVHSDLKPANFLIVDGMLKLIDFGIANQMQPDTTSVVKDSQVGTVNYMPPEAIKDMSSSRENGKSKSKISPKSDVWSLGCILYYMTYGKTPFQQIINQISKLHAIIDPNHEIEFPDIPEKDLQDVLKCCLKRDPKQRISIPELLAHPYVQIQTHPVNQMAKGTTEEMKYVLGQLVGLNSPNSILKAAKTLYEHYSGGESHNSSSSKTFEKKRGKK
In short: as §1

Syk = Syk (Homo sapiens, UniProt P43405)
In short: as §1

[1] = read-out: Kinome Profiling performed by Eurofins DiscoverX / AM-1882, 1.0 µM / POC
[2] = read-out: Kinome Profiling performed by Eurofins DiscoverX / AM-0277, 1.0 µM / POC
[3] = read-out: Kinome Profiling performed by Eurofins DiscoverX / AM-5308, 1.0 µM / POC

T1 sequence (Q13882 whole entry): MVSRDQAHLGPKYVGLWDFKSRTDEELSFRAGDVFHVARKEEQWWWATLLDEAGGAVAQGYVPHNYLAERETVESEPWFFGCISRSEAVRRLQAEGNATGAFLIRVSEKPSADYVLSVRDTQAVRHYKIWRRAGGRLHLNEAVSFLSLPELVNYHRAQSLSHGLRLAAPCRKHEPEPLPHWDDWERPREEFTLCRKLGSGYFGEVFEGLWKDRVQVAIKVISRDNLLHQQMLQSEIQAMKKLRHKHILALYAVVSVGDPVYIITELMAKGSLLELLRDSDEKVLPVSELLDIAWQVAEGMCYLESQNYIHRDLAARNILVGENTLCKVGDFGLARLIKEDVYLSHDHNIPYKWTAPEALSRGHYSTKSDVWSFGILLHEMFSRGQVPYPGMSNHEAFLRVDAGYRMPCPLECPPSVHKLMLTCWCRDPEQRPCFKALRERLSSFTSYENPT

With `CC(C)(C)NS(=O)(=O)c1cccc(NC(=O)c2ccc(S(=O)(=O)NC(C)(C)C)cc2N2CCC3(CC2)CC3)c1` [AM-1882] the remaining activity at 1 µM (Brk; [1]) was 94%, the remaining activity at 1 µM (MNK1b; [1]) was 100% and the remaining activity at 1 µM (MAP2K3; [1]) was 67%. The remaining activity at 1 µM (Mps1; [1]) was 97% and the remaining activity at 1 µM (Syk; [1]) was 89.5%.

For `CC(C)(CO)Nc1ccc(C(=O)Nc2cccc(S(=O)(=O)C3CCCC3)c2)c(N2CCC3(CC2)CC3)n1` [AM-0277], the remaining activity at 1 µM (Brk; [2]) was 95%, the remaining activity at 1 µM (MNK1b; [2]) was 100% and the remaining activity at 1 µM (MAP2K3; [2]) was 96%. The remaining activity at 1 µM (Mps1; [2]) was 76% and the remaining activity at 1 µM (Syk; [2]) was 100%.

With `C[C@@H]1CN(c2cccc(NC(=O)c3ccc(NS(=O)(=O)CCO)cc3N3CCC4(CC3)CC4)n2)CCO1` [AM-5308] the remaining activity at 1 µM (Brk; [3]) was 93.5%, the remaining activity at 1 µM (MNK1b; [3]) was 96.5% and the remaining activity at 1 µM (MAP2K3; [3]) was 88.5%. The remaining activity at 1 µM (Mps1; [3]) was 47% and the remaining activity at 1 µM (Syk; [3]) was 79.5%.
